# Measured values taken from paper PMC11342128, “Gold(I) and gold(III) carbene complexes from the marine betaine norzooanemonin: inhibition of thioredoxin reductase, antiproliferative and antimicrobial activity” (RSC Medicinal Chemistry, 2024).
# Where “and” joins values, the source holds several entries; their conditions need not be identical. Identical values can stand only once. Like-named read-outs stand apart in the source and are kept apart here.
# Legend:
# [1] = tested on: Acinetobacter baumannii DSM30007; test: Antibacterial activity (MIC, curve fitting); assay type: cell-based; conditions: for MIC, A.b.: Table 2, Acinetobacter baumannii DSM30007, 18 h, 37 °C; for MIC, A. baumannii: Table S12, ± standard error of the mean
# Description: (§1) The antibacterial activity of all gold complexes was assessed against six pathogenic bacterial strains, including two Gram-positive species, i.e. Enterococcus faecium and methicillin-resistant Staphylococcus aureus (MRSA), and four Gram-negative species, i.e. Acinetobacter baumannii, Escherichia coli, Klebsiella pneumoniae, and Pseudomonas aeruginosa. Minimum inhibitory concentrations (MICs) were determined using a curve-fitting technique.
# (§2) S2.1. Antibacterial Studies
# (§3) Bacterial cultures were prepared by overnight aerobic incubation at 37 °C. Gram-negative strains were cultivated in Müller Hinton broth supplemented with 1% glucose at pH 7.2, while Gram-positive strains were grown in Trypticase soy yeast extract medium (TSY) with a composition of 30 g/l trypticase soy broth, 3 g/l yeast extract, and pH 7.2. The cultures were adjusted to an OD600 of 0.001, resulting in a final starting OD600 of 0.0005 for the subsequent tests. For testing, 25 μL of the prepared culture was combined with 25 μL of serially diluted test compounds in 384 well plates, following established protocols for different strains. Screening was performed at compound concentrations of 0.5, 5, and 50 µM, and for selected compounds, growth inhibition curves were recorded using DMSO stock solutions […]
# (§4) Positive control compounds, namely linezolid (for MRSA strains), ciprofloxacin (for E. faecium and E. coli), and amikacin (for P. aeruginosa), were included. The maximum DMSO concentration in the assay […]
# (§5) After an 18-hour incubation at 37 °C under moist conditions, the optical density at 600 nm was measured using a Fusion Universal Microplate Analyser (Perkin–Elmer, Waltham, USA). The minimum inhibitory concentration (MIC) values, representing the […]
# (§6) fitting with Sigma Plot. The bacterial strains used included Gram-negative strains: Escherichia coli (DSM 1116), A. baumannii (DSM30007), K. pneumoniae (DSM111678), and Pseudomonas aeruginosa PA7 (DSM 24068); and Gram-positive strains: E. faecium (DSM20477) and Staphylococcus aureus MRSA
# [2] = tested on: Enterococcus faecium DSM20477; test: Antibacterial activity (MIC, curve fitting); assay type: cell-based; conditions: for MIC, E.f.: Table 2, Enterococcus faecium DSM20477, 18 h, 37 °C; for MIC, E. faecium: Table S12, ± standard error of the mean
# Description: as §1, §2, §3, §4, §5, §6
# [3] = tested on: Escherichia coli DSM 1116; test: Antibacterial activity (MIC, curve fitting); assay type: cell-based; conditions: for MIC, E.c.: Table 2, Escherichia coli DSM 1116, 18 h, 37 °C; for MIC, E. coli: Table S12, ± standard error of the mean
# Description: as §1, §2, §3, §4, §5, §6
# [4] = tested on: Klebsiella pneumoniae DSM111678; test: Antibacterial activity (MIC, curve fitting); assay type: cell-based; conditions: for MIC, K.p.: Table 2, Klebsiella pneumoniae DSM111678, 18 h, 37 °C; for MIC, K. pneumoniae: Table S12, ± standard error of the mean
# Description: as §1, §2, §3, §4, §5, §6
# [5] = tested on: Pseudomonas aeruginosa DSM 24068; test: Antibacterial activity (MIC, curve fitting); assay type: cell-based; conditions: for MIC, P.a.: Table 2, Pseudomonas aeruginosa DSM 24068, 18 h, 37 °C; for MIC, P. aeruginosa: Table S12, ± standard error of the mean
# Description: as §1, §2, §3, §4, §5, §6
# [6] = tested on: methicillin-resistant Staphylococcus aureus DSM 11822; test: Antibacterial activity (MIC, curve fitting); assay type: cell-based
# Description: as §1, §2, §3, §4, §5, §6
# [7] = tested on: A549 lung carcinoma cells; parameters: method as in PMID 38205632; conditions: read-out: Antiproliferative activity IC50, A549; cited from earlier work
# [8] = tested on: HT-29 colon carcinoma cells; parameters: method as in PMID 38205632; conditions: read-out: Antiproliferative activity IC50, HT-29; cited from earlier work
# [9] = tested on: MCF-7 breast adenocarcinoma cells; parameters: method as in PMID 38205632; conditions: read-out: Antiproliferative activity IC50, MCF-7; cited from earlier work
# [10] = tested on: MDA-MB-231 breast cancer cells; parameters: method as in PMID 38205632; conditions: read-out: Antiproliferative activity IC50, MDA-MB-231; cited from earlier work
# [11] = biological target: T1, TrxR from E. coli (Escherichia coli, UniProt P0A9P4); conditions: read-out: Inhibition of bacterial TrxR, IC50; isolated E. coli TrxR; investigated in previous report; cited from earlier work
# T1 sequence (P0A9P4 2-321): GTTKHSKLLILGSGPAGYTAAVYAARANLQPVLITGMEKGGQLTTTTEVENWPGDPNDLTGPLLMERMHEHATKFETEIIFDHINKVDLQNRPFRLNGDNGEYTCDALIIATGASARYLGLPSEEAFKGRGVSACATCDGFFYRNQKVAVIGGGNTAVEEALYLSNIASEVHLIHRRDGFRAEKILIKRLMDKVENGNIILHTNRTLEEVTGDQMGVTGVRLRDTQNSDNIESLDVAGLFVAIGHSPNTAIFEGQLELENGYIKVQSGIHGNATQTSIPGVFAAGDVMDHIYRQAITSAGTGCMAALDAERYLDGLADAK
# [12] = biological target: T1, TrxR from E. coli; test: Inhibition of isolated bacterial TrxR, DTNB-based assay; assay type: biochemical; parameters: purchased Sigma-Aldrich; conditions: for TrxR activity, % of control: compounds at 0.5 µM, n = 2, Table S13
# Description: The inhibition of isolated TrxR from E. coli was determined for the selected monocarbene gold(I/III) complexes 2a–c and 4b–c using a DTNB-based assay (Table 3). […] The inhibition of bacterial TrxR for compound 2a was investigated in our previous report (Table 3).
# S2.3. Inhibition of bacterial TrxR from E. coli
# The TrxR (E. coli) inhibition assay was performed according to previously published procedures.[8] The assay is partly based on the procedure developed by Lu et al[9] and makes use of the reduction of DTNB (5,5′-dithiobis-(2-nitrobenzoic acid)). Solutions of E. coli TrxR (10.1 U/mL) and E. coli thioredoxin (Trx) (312 μg/mL) (both purchased from Sigma-Aldrich) were prepared in distilled water. Stock solutions of the test compounds (2 mM) were prepared in DMSO and serially diluted with TE buffer (Tris-HCl 50 mM, EDTA 1 mM, pH 7.5). 20 μL of these solutions or TE buffer without the test compounds (positive control) were mixed with the TrxR solution (10 μL), the Trx solution (10 μL) and 100 µl of NADPH (200 μM) in TE buffer in a well on a 96-well plate. As a blank control, 200 μM NADPH in TE buffer (100 μL) mixed with a DMSO / buffer mixture (40 μL) was used (final concentrations of DMSO: 0.5% v/v). The plate was incubated for 75 min at 25°C with moderate shaking. After incubation, 100 μL of a reaction mixture (TE buffer containing 200 μM NADPH and 5 mM DTNB) was added to each well to initiate the reaction. After thorough mixing, the formation of 5-TNB was monitored by a microplate reader at 405 nm in 35 s intervals (10 measurements). The values were corrected by subtraction of the blank solution absorption values. The increase in concentration of 5-TNB followed a linear trend (r2≥ 0.990) and the enzymatic activities were calculated as the gradients (increase in absorbance per second) thereof. […]
# for each test compound, where the highest test compound concentration was used and the enzyme solution was replaced by TE buffer. The inhibition is presented as the mean IC50 values and standard deviations obtained in three independent experiments.
# Table S13. Activity of TrxR from E. coli in presence of compounds at 0.5 µM (n = 2, n.d.= not
# [13] = tested on: A549 lung carcinoma cells; test: Antiproliferative activity, crystal violet assay; assay type: cell-based; conditions: 72 h exposure, SD in parentheses, n = 3
# Description: (§7) The antiproliferative potential of the gold–NHC complexes was determined in A549 lung carcinoma cells, MDA-MB-231 breast cancer cells, MCF-7 breast adenocarcinoma cells, and HT-29 colon carcinoma cells (Table 1). Vero E6 African green monkey kidney cells served as a reference cell line to check for possible tumour selectivity. Auranofin (AF) was used as an established reference drug.[15,17] […]
# (§8) S2.2. Cytotoxicity and Anticancer Studies
# (§9) Cell culture and cytotoxicity
# (§10) Cell lines were sourced from DSMZ (German Collection of Microorganisms and Cell Cultures GmbH) and maintained through standard procedures in Dulbecco's Modified Eagle Medium (DMEM) supplemented with 10% fetal calf serum and 50 mg/L gentamycin. Antiproliferative effects were assessed using a well-established assay protocol. In brief, 100 μL volumes of A549 cells (13,243 cells per mL), HT-29 cells (14,657 cells per mL), MDA-MB-231 cells (6,613 cells per mL), or MCF-7 cells (6,917 cells per mL) were transferred into the wells of 96-well plates and incubated at 37°C/5% CO2 for 72 […]
# (§11) Freshly prepared stock solutions of the compounds in DMSO were diluted with the respective cell culture medium to achieve graded concentrations (final concentration of DMSO: 0.1% v/v). After 72 hours (A549, HT-29) or 96 hours (MCF-7, MDA-MB-231) of exposure, the cell biomass was assessed through crystal violet staining, and the IC50 value was determined as the concentration causing 50% inhibition of cell proliferation compared to an untreated control. Results were calculated as the mean values of three independent experiments.
# [14] = tested on: HT-29 colon carcinoma cells; test: Antiproliferative activity, crystal violet assay; assay type: cell-based; conditions: 72 h exposure, SD in parentheses, n = 3
# Description: as §7, §8, §9, §10, §11
# [15] = tested on: MCF-7 breast adenocarcinoma cells; test: Antiproliferative activity, crystal violet assay; assay type: cell-based; conditions: 96 h exposure, SD in parentheses, n = 3
# Description: as §7, §8, §9, §10, §11
# [16] = tested on: MDA-MB-231 breast cancer cells; test: Antiproliferative activity, crystal violet assay; assay type: cell-based; conditions: 96 h exposure, SD in parentheses, n = 3
# Description: as §7, §8, §9, §10, §11
# [17] = tested on: Vero E6 African green monkey kidney cells; test: Antiproliferative activity in non-tumour reference cell line; assay type: cell-based; conditions: Vero E6 non-tumour reference cell line; SD in parentheses, n = 3
# Description: as §7, §8, §9, §10, §11
# [18] = Table 2, MRSA DSM 11822, 18 h, 37 °C
# [19] = Table S12, ± standard error of the mean
SMILES,"MIC, A.b. [1]","MIC, A. baumannii [1]","MIC, E.f. [2]","MIC, E. faecium [2]","MIC, E.c. [3]","MIC, E. coli [3]","MIC, K.p. [4]","MIC, K. pneumoniae [4]","MIC, P.a. [5]","MIC, P. aeruginosa [5]","MIC, MRSA [6, 18]","MIC, MRSA [6, 19]","TrxR activity, % of control [12]",further results
Cn1cc(C(=O)O)[n+](C)[c]1[Au-][Cl] [2a],43 ± 0 µM,42.95 ± 0 µM,>100 µM,> 100 µM,86 ± 0 µM,85.89 ± 0 µM,43 ± 7 µM,42.95 ± 6.75 µM,>100 µM,> 100 µM,>100 µM,> 100 µM,94.6 % of control,IC50 [7]: 60 µM; IC50 [8]: 63.9 µM; IC50 [9]: 53.4 µM; IC50 [10]: 76.1 µM; IC50 [11]: 0.786 ± 0.118 µM
COC(=O)c1cn(C)[c]([Au-]([Cl])([Cl])[Cl])[n+]1C [4b],9 µM and 9 ± 2 µM,8.74 ± 1.82 µM,17 µM and 17 ± 0 µM,17.49 ± 0 µM,35 µM and 35 ± 0 µM,34.97 ± 0 µM,35 µM and 35 ± 0 µM,34.97 ± 0 µM,>100 µM,> 100 µM,17 µM and 17 ± 0 µM,17.49 ± 0 µM,36.5 % of control,"IC50 [13]: 17.7 µM; IC50 [14]: 26.2 µM; IC50 [15]: 15.2 µM; IC50 [16]: 15.2 µM; IC50 [17]: 22.2 µM; IC50 ([12]; isolated E. coli TrxR, DTNB assay, ± standard deviation, n = 3): 0.362 ± 0.033 µM"
